Data set [1] has as its system Liver microsomes. Briefly: Hepatic clearance in human liver microsomes […]. The data set is classed as ADME, Microsome. (Microsomes from liver hold many membrane-bound enzymes, among them those of drug oxidation.)
Data set [2] is described as follows: AUC (0 to infinity) in rat at 10 mg/kg, po. Further details: time infinity, dose 10 mg/kg, route oral. The data set is classed as ADME, organism-based. The note with it: plasma.
A short description of data set [3]: AUC (0 to infinity) in rat at 2.5 mg/kg, iv. The note with it: plasma. The data set is classed as ADME, organism-based. Set-up: time infinity, dose 2.5 mg/kg, route intravenous.
Data set [4] has as its system Mus musculus. Briefly: Free plasma concentration in mouse at 100 mg/kg, ip after 4 hrs. Type of data set: ADME, organism-based. Further details: dose 100 mg/kg, route intraperitoneal. As to conditions: in vivo.
Data set [5] can be described thus: Volume of distribution in rat. Type of data set: ADME, organism-based. The note with it: in vivo.
In data set [6] the test system is Mus musculus. Briefly: Free plasma concentration in mouse at 100 mg/kg, po after 4 hrs. The note with it: in vivo. Further details: dose 100 mg/kg, route oral. Type of data set: ADME, organism-based.
Data set [7] deals with Mus musculus. Briefly: Free plasma concentration in mouse at 100 mg/kg, po after 1 hr. Set-up: dose 100 mg/kg, route oral. As to conditions: in vivo. Type of data set: ADME, organism-based.
In data set [8] the test system is Mus musculus. Briefly: Free plasma concentration in mouse at 100 mg/kg, ip after 1 hr. The data set is classed as ADME, organism-based. Set-up: dose 100 mg/kg, route intraperitoneal. The note with it: in vivo.
Data set [9] can be described thus: Half life in rat. Type of data set: ADME, organism-based. The note with it: in vivo.
For the next data set, the target named is Heat shock protein HSP90 (Homo sapiens, UniProt P07900+P08238).
The nature of data set [10]: Half life in mouse at 100 mg/kg, po. Type of data set: ADME, organism-based. Set-up: dose 100 mg/kg, route oral. The note with it: in vivo.
Data set [11] is described as follows: Half life in mouse at 20 mg/kg, iv. Type of data set: ADME, organism-based. Set-up: dose 20 mg/kg, route intravenous. As to conditions: in vivo.
Data set [12] relates to Mus musculus. Briefly: Free plasma concentration in mouse at 20 mg/kg, iv after 1 hr. Set-up: dose 20 mg/kg, route intravenous. The note with it: in vivo. Type of data set: ADME, organism-based.
For data set [13], the system named is Mus musculus. Briefly: Free plasma concentration in mouse at 20 mg/kg, iv after 4 hrs. Type of data set: ADME, organism-based. Further details: dose 20 mg/kg, route intravenous. As to conditions: in vivo.
The nature of data set [14]: Clearance in rat. Type of data set: ADME, organism-based. The note with it: in vivo.
Data set [15] is described as follows: Oral bioavailability in rat. Type of data set: ADME, organism-based. As to conditions: in vivo.
The subject of data set [16] is Liver microsomes. Briefly: Hepatic clearance in rat liver microsomes […]. Type of data set: ADME, Microsome.

As for `CCCNC(=O)C1c2ccccc2CN1C(=O)c1cc(Cl)c(O)cc1O` (stereo unspecified), in the data set with Liver microsomes [1], the CLH came out at 9 µL/min.

By AUC(0-inf) is commonly meant the area under the concentration-time curve extrapolated to infinity. Low readings indicate less exposure, high ones more exposure. Usually Vd stands for a proportionality between amount in the body and measured concentration, not a real space. A low value points to confinement near the circulation. Broadly, the half-life is the time in which the quantity being followed falls by half. As usually defined, the IC50 is the point on the concentration scale where inhibition reaches its midpoint. A higher IC50 goes with a need for much substance. By clearance is commonly meant the volume of plasma or blood freed of the substance per unit of time. The low end stands for a low capacity for elimination, the high end for a high capacity for elimination. By bioavailability is commonly meant dose-corrected exposure relative to a reference, in per cent. A lower bioavailability goes with little systemic uptake. Take `CCNC(=O)[C@H]1c2ccccc2CN1C(=O)c1cc(Cl)c(O)cc1O`: the area under the curve AUC(0-inf) is 1300 ng·h/mL in data set [2] and 1700 ng·h/mL in data set [3]. Moreover, the “Cp(f)” value in the data set on Mus musculus [4] is 410 nM; with Mus musculus [6], 330 nM; in the data set on Mus musculus [7] it was 810 nM; in the data set with Mus musculus [8] it was 16000 nM; with Mus musculus [12] it was 286 nM; in the data set on Mus musculus [13], 76 nM. In data set [5], the distribution volume (Vd) amounted to 3.3 L/kg. Moreover, the values for the half-life in data set [9], in data set [10] and in [11] were 5.2 h, 8.3 h and 5.2 h, respectively. Moreover, the IC50 against Heat shock protein HSP90 was determined as 300 nM. Further, the CLH with Liver microsomes [1] turned out to be 7 µL/min; with Liver microsomes [16], 0.2 µL/min. The same molecule gave a clearance in data set [14] of 23.3 mL/min/kg. The molecule further came in with a bioavailability in data set [15] of 20%.

With `O=C([C@H]1c2ccccc2CN1C(=O)c1cc(Cl)c(O)cc1O)N1CCCC1`, the AUC(0-inf) in data set [2] amounted to 2900 ng·h/mL; in [3], 2100 ng·h/mL. The molecule further came in with a Vd in [5] of 8.1 L/kg. Also, the half-life in data set [9] is 7.9 h. The IC50 at Heat shock protein HSP90 turned out to be 600 nM. Moreover, the CLH worked out at 11 µL/min with Liver microsomes [1] and 0.2 µL/min with Liver microsomes [16]. The molecule further had a clearance in data set [14] of 23.3 mL/min/kg. In data set [15], the bioavailability stood at 35%.

`O=C(C1c2ccccc2CN1C(=O)c1cc(Cl)c(O)cc1O)N1CCCC1` (stereo unspecified) had an IC50 against Heat shock protein HSP90 of 600 nM. Besides, the CLH in the data set on Liver microsomes [1] is 2 µL/min.

The molecule `O=C(c1cc(Cl)c(O)cc1O)N1CCCC1` showed a CLH with Liver microsomes [1] of 56 µL/min.

On to `O=C(NC1CCCCC1)[C@H]1CCCN1C(=O)c1cc(Cl)c(O)cc1O`, for which the CLH with Liver microsomes [1] was 9 µL/min.

With `C=CCNC(=O)C1c2ccccc2CN1C(=O)c1cc(Cl)c(O)cc1O` (stereo unspecified), the IC50 against Heat shock protein HSP90 was determined as 1500 nM. For the same molecule, the CLH with Liver microsomes [1] was 8.5 µL/min.

As for `CO[C@H]1/C=C\C=C(/C)C(=O)NC2=CC(=O)C(NCCN(C)C)=C(C[C@@H](C)C[C@H](OC)[C@H](O)[C@@H](C)/C=C(\C)[C@@H]1OC(N)=O)C2=O` [ALVESPIMYCIN], in the data set on Liver microsomes [1], the CLH was < 3 µL/min.

`O=C(NCc1ccccc1)C1c2ccccc2CN1C(=O)c1cc(Cl)c(O)cc1O` (stereo unspecified): the IC50 against Heat shock protein HSP90 stood at 700 nM. For the same molecule, the CLH in the data set on Liver microsomes [1] was found to be 25 µL/min.

For the molecule `Cc1ccccc1[C@H]1CCCN1C(=O)c1cc(Cl)c(O)cc1O`, the IC50 against Heat shock protein HSP90 worked out at 1000 nM. The molecule also showed a CLH in the data set on Liver microsomes [1] of 129 µL/min.

At Heat shock protein HSP90, `CNC(=O)C1c2ccccc2CN1C(=O)c1cc(Cl)c(O)cc1O` (stereo unspecified) had an IC50 of 1700 nM. For the same molecule, the CLH in the data set on Liver microsomes [1] was < 2 µL/min.

Take `CCNC(=O)C1c2ccccc2CN1C(=O)c1cc(Cl)c(O)cc1O` (stereo unspecified): the IC50 at Heat shock protein HSP90 was found to be 300 nM. The molecule also displayed a CLH in the data set on Liver microsomes [1] of 4.7 µL/min.

With `O=C([C@H]1CCCN1C(=O)c1cc(Cl)c(O)cc1O)N1CCCC1`, the CLH in the data set on Liver microsomes [1] is < 9 µL/min.

As for `CN(C)C(=O)[C@H]1CCCN1C(=O)c1cc(Cl)c(O)cc1O`, the CLH in the data set on Liver microsomes [1] is < 7 µL/min.

On to `CN(C)C(=O)C1c2ccccc2CN1C(=O)c1cc(Cl)c(O)cc1O` (stereo unspecified), for which the IC50 on Heat shock protein HSP90 came to 1500 nM. This molecule also yielded a CLH with Liver microsomes [1] of 2.4 µL/min.
